Read-outs that look alike come from different tables or passages of the source. Bridge positions count the residues as written; N and C are the ends. Square brackets hold non-standard residues; d marks the D form. Peptide text beside a SMILES is read from it. Ala(1-amidino-4-piperidyl) = N=C(N)N1CCC(C[C@H](N)C(=O)O)CC1; Phe(4-guanidino) = N=C(N)Nc1ccc(C[C@H](N)C(=O)O)cc1

The target in one test is T1, muPA Y99A (Mus musculus, UniProt P06869, Y274A).
T1 construct: To ensure that the uPAs purified from the conditioned media were completely in the two-chain form, they were treated with plasmin; hexa-His (C); made in house; host or cells: HEK293 6E suspension cells
T1 sequence (P06869 180-433 Y274A): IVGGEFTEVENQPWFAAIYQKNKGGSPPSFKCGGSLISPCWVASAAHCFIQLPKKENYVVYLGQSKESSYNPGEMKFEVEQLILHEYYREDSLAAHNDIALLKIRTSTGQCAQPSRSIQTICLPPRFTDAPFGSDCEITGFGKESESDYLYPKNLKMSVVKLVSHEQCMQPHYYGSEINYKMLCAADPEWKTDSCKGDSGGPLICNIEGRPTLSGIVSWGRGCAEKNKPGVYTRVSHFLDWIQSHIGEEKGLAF
T1 sequence (P06869 21-178 partner limits assumed): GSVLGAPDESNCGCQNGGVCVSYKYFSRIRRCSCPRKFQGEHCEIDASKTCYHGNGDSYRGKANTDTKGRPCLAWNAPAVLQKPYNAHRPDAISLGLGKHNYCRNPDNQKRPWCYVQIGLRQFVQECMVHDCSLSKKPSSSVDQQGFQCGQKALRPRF
The test is described as follows: Ki for inhibition of muPA-Y99A, chromogenic substrate. The settings on record: means ± S.D.; read-out: K i for inhibition of muPA-Y99A. The format is biochemical, murine. The text has this:
(§1) Determination of Ki values
(§2) The initial reaction velocities were monitored at an absorbance of 405 nm. The inhibition constants (K i) were subsequently determined from the non-linear regression analyses of plots for V i/V o versus [I]0, using Equation 2, derived under assumption of competitive inhibition:
(§3) [drawing 2] (2) where V i and V 0 are the reaction velocities in the presence and absence of inhibitor, respectively; [S]0 and [I]0 are the substrate and inhibitor concentrations, respectively; K M is K M for substrate hydrolysis by each protease. In Equation 2, it is assumed that [S]free ≈ [S]0 and [I]free ≈ [I]0.

Another test deals with T2, muPA V213T (Mus musculus, UniProt P06869, V396T).
T2 construct: To ensure that the uPAs purified from the conditioned media were completely in the two-chain form, they were treated with plasmin; hexa-His (C); made in house; host or cells: HEK293 6E suspension cells
T2 sequence (P06869 180-433 V396T): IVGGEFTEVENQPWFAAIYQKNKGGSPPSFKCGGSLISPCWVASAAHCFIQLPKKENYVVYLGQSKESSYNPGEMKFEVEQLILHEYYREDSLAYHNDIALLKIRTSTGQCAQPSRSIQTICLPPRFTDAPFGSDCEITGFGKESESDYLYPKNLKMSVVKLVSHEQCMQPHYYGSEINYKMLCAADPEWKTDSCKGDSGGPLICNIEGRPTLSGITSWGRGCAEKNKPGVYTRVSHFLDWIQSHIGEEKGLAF
T2 sequence (P06869 21-178 partner limits assumed): as the sequence (P06869 21-178 partner limits assumed) above
The test is described as follows: Ki for inhibition of muPA-V213T, chromogenic substrate. The format is biochemical, murine. The settings on record: means ± S.D.; read-out: K i for inhibition of muPA-V213T.
Excerpt: as §1, §2, §3

In another test the target is T3, muPA S190A (Mus musculus, UniProt P06869, S373A).
T3 construct: To ensure that the uPAs purified from the conditioned media were completely in the two-chain form, they were treated with plasmin; hexa-His (C); made in house; host or cells: HEK293 6E suspension cells
T3 sequence (P06869 180-433 S373A): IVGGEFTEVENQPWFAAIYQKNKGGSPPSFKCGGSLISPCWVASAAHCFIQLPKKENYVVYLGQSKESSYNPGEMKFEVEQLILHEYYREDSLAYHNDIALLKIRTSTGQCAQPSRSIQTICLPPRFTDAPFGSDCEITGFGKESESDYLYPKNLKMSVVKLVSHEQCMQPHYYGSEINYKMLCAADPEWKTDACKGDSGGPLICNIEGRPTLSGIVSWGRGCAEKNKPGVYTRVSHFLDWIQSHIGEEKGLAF
T3 sequence (P06869 21-178 partner limits assumed): as the sequence (P06869 21-178 partner limits assumed) above
The test is described as follows: Ki for inhibition of muPA-S190A, chromogenic substrate. The format is biochemical, murine. The settings on record: means ± S.D.; read-out: K i for inhibition of muPA-S190A.
Excerpt: as §1, §2, §3

For a further test, the target named is T4, muPA K41A (Mus musculus, UniProt P06869, K210A).
T4 construct: To ensure that the uPAs purified from the conditioned media were completely in the two-chain form, they were treated with plasmin; hexa-His (C); made in house; host or cells: HEK293 6E suspension cells
T4 sequence (P06869 180-433 K210A): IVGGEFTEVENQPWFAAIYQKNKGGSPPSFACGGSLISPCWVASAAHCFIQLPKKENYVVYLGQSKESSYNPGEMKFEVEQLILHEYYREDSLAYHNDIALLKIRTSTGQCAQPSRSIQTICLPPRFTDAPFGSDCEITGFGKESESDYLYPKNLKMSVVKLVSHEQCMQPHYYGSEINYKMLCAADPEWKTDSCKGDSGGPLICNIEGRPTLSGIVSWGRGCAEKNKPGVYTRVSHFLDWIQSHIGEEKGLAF
T4 sequence (P06869 21-178 partner limits assumed): as the sequence (P06869 21-178 partner limits assumed) above
The test is described as follows: Ki for inhibition of muPA-K41A, chromogenic substrate. The format is biochemical, murine. Particulars: means ± S.D.; read-out: K i for inhibition of muPA-K41A.
Excerpt: as §1, §2, §3

For another test, the target named is T5, huPA-H99Y V41A (Homo sapiens, UniProt P00749, H272Y/V208A).
T5 construct: To ensure that the uPAs purified from the conditioned media were completely in the two-chain form, they were treated with plasmin; hexa-His (C); made in house; host or cells: HEK293 6E suspension cells
The test is described as follows: Ki for inhibition of huPA-H99Y-V41A, chromogenic substrate. The class given is biochemical. The settings on record: 37°C; means ± S.D.; read-out: K i for inhibition of huPA-H99Y-V41A.
Excerpt: as §1, §2, §3

The next test concerns the target T6, huPA-H99Y R35A (Homo sapiens, UniProt P00749, H272Y/R198A).
T6 construct: To ensure that the uPAs purified from the conditioned media were completely in the two-chain form, they were treated with plasmin; hexa-His (C); made in house; host or cells: HEK293 6E suspension cells
The test is described as follows: Ki for inhibition of huPA-H99Y-R35A, chromogenic substrate. The format is biochemical. The settings on record: 37°C; means ± S.D.; read-out: K i for inhibition of huPA-H99Y-R35A.
Excerpt: as §1, §2, §3

Another test concerns the target T7, huPA-H99Y K143A (Homo sapiens, UniProt P00749, H272Y/K320A).
T7 construct: To ensure that the uPAs purified from the conditioned media were completely in the two-chain form, they were treated with plasmin; hexa-His (C); made in house; host or cells: HEK293 6E suspension cells
The test is described as follows: Ki for inhibition of huPA-H99Y-K143A, chromogenic substrate. The format is biochemical. Particulars: 37°C; means ± S.D.; read-out: K i for inhibition of huPA-H99Y-K143A.
Excerpt: as §1, §2, §3

In test [1] the target is T8, huPA-H99Y (Homo sapiens, UniProt P00749, H272Y).
T8 construct: To ensure that the uPAs purified from the conditioned media were completely in the two-chain form, they were treated with plasmin; hexa-His (C); made in house; host or cells: HEK293 6E suspension cells
The test is described as follows: Surface plasmon resonance analysis of peptide binding to huPA-H99Y. The settings on record: SPR; for koff: read-out: koff of fitted curve, representative sensorgram; for kon: read-out: kon of fitted curve, representative sensorgram. The protocol: (§4) Surface plasmon resonance (SPR) analysis
(§5) To determine the equilibrium binding constants (KD), the association rate constants (kon) and dissociation rate constants (koff) for peptide binding to uPA, surface plasmon resonance analysis was performed on a Biacore T200 instrument (Biacore, Uppsala, Sweden). A CM5 chip was coupled with the uPA variant (muPA or huPAH99Y) to be analysed, by injecting a concentration of 30 µg/mL uPA in immobilization buffer (10 mM sodium acetate, pH 5.0), aiming for an immobilised level of approximately 500 response units (RU). Immobilisation was followed by surface blocking with ethanolamine. A reference cell was prepared in the same way, without coupling of uPA. Mupain-1 variants in HBS with 0.1% BSA, in a dilution series, were injected at a flow rate of 30 µL per min during 60 s at 25°C. Subsequently, the dissociation was monitored during 600 s. Kinetic constants (k on and k off) were calculated with the Biacore Evaluation Software, using the 1∶1 kinetic fit. The K D values were calculated as k off /k on.

A further test addresses T9, muPA wt (Mus musculus, UniProt P06869).
T9 construct: To ensure that the uPAs purified from the conditioned media were completely in the two-chain form, they were treated with plasmin; hexa-His (C); made in house; host or cells: HEK293 6E suspension cells
The settings on record: means ± S.D.; starred values reproduced from previous publications; ref Andersen et al., 2008; Hosseini et al., 2011; read-out: K i for inhibition of muPA wt; cited from earlier work.

In the next test the target is T10, muPA K143A (Mus musculus, UniProt P06869, K322A).
T10 construct: To ensure that the uPAs purified from the conditioned media were completely in the two-chain form, they were treated with plasmin; hexa-His (C); made in house; host or cells: HEK293 6E suspension cells
T10 sequence (P06869 180-433 K322A): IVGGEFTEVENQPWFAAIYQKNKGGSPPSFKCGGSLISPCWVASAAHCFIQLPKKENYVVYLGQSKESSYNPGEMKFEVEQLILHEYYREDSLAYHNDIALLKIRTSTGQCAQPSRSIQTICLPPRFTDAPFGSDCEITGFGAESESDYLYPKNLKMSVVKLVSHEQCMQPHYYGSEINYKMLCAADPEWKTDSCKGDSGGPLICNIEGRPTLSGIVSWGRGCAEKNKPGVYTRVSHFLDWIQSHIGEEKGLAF
T10 sequence (P06869 21-178 partner limits assumed): as the sequence (P06869 21-178 partner limits assumed) above
The test is described as follows: Ki for inhibition of muPA-K143A, chromogenic substrate. The format is biochemical, murine. Particulars: means ± S.D.; read-out: K i for inhibition of muPA-K143A.
Excerpt: as §1, §2, §3

For a further test, the target named is T11, muPA (Mus musculus, UniProt P06869).
T11 construct: To ensure that the uPAs purified from the conditioned media were completely in the two-chain form, they were treated with plasmin; hexa-His (C); made in house; host or cells: HEK293 6E suspension cells
T11 sequence (P06869 180-433 limits assumed): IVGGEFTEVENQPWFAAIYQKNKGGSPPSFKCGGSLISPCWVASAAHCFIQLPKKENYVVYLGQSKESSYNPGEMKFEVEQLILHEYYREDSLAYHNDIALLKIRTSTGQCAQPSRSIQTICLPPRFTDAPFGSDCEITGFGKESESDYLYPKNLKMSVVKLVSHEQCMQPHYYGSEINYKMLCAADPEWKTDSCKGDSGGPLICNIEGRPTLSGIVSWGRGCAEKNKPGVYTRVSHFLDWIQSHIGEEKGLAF
T11 sequence (P06869 21-178 partner limits assumed): as the sequence (P06869 21-178 partner limits assumed) above
The test is described as follows: Surface plasmon resonance analysis of peptide binding to muPA. Particulars: SPR, 25°C, pH 7.4. The arrangement: species or system murine. Here is the method: as §4, §5

The target in the next test is huPA-H99Y Q192A (Homo sapiens, UniProt P00749, H272Y/Q373A). The test is described as follows: Ki for inhibition of huPA-H99Y-Q192A, chromogenic substrate. The settings on record: 37°C; means ± S.D.; read-out: K i for inhibition of huPA-H99Y-Q192A. On the set-up: To ensure that the uPAs purified from the conditioned media were completely in the two-chain form, they were treated with plasmin; hexa-His (C); made in house; host or cells: HEK293 6E suspension cells. The class given is biochemical.
Excerpt: as §1, §2, §3

In test [2] the target is T8, huPA-H99Y. Particulars: 37°C; means ± S.D.; starred values reproduced from previous publications; ref Andersen et al., 2008; Hosseini et al., 2011; read-out: K i for inhibition of huPA-H99Y; cited from earlier work.
The mark [3] stands for this setting: 25°C, pH 7.4, calculated as k off/k on, read-out: K D, huPA-H99Y.
[4] abbreviates: huPA-H99Y immobilized on CM5 chip, single example (S3 Fig), read-out: KD of fitted curve, representative sensorgram.
[5] abbreviates: huPA-H99Y immobilized on CM5 chip, single example (S3 Fig).

T9 sequence (P06869 180-433 limits assumed): as the sequence (P06869 180-433 limits assumed) above
T9 sequence (P06869 21-178 partner limits assumed): as the sequence (P06869 21-178 partner limits assumed) above

A word on the koff: it is the first-order rate constant of dissociation. Usually kon stands for the second-order rate constant of association. For `CC(=O)N[C@H]1CSSC[C@@H](C(N)=O)NC(=O)[C@H](CC(=O)O)NC(=O)[C@H](CC(C)C)NC(=O)[C@H](Cc2ccc(O)cc2)NC(=O)[C@H](Cc2ccc(NC(=N)N)cc2)NC(=O)[C@H](CO)NC(=O)[C@H](Cc2ccc(O)cc2)NC(=O)[C@H](C)NC(=O)[C@@H]2CCCN2C1=O` [Mupain-1-12, CPAYS[4-guanidino-phenyl-alanine]YLDC] (Ac-CPAYS[Phe(4-guanidino)]YLDC-NH2; disulfide 1-10), the Ki stood at 5200 ± 60 nM at muPA Y99A; 86 ± 30 nM on muPA V213T; 2300 ± 460 nM on muPA S190A; 1720 ± 240 nM on muPA K41A; 1600 ± 540 nM at huPA-H99Y V41A; 3260 ± 1040 nM at huPA-H99Y R35A. The Ki on huPA-H99Y K143A is 2140 ± 780 nM; at muPA wt, 280 ± 20 nM; on muPA K143A it was 1000 ± 40 nM; on huPA-H99Y Q192A, 2350 ± 740 nM; on huPA-H99Y [2] it was 1860 ± 740 nM. In addition, the “k off, huPA-H99Y” value at huPA-H99Y [1] (25°C, pH 7.4) is on record as 24.6±1.2 (4) s^-1, ×10^2. The “k on, huPA-H99Y” value at huPA-H99Y [1] (25°C, pH 7.4) was 2.06±0.15 (4) M^-1s^-1, ×10^-5. Moreover, the Kd was 1210 ± 130 nM on huPA-H99Y [1] (setting [3]) and 1320 nM on huPA-H99Y [1] (setting [4]). For the same compound, the koff on huPA-H99Y [1] (setting [5]) worked out at 0.248 s⁻¹. The kon at huPA-H99Y [1] (setting [5]) was 188000 M⁻¹ s⁻¹. Moreover, the “k off, muPA” value on muPA is given as 1.92±0.63 (4) s^−1, ×10^2. The “k on, muPA” value on muPA is 1.56±0.95 (4) M^−1s^−1, ×10^−5.

Turning to `CC(=O)N[C@H]1CSSC[C@@H](C(N)=O)NC(=O)[C@H](CC(=O)O)NC(=O)[C@H](CC(C)C)NC(=O)[C@H](Cc2ccc(O)cc2)NC(=O)[C@H](CC2CCN(C(=N)N)CC2)NC(=O)[C@H](CO)NC(=O)[C@H](Cc2ccc(O)cc2)NC(=O)[C@H](C)NC(=O)[C@@H]2CCCN2C1=O` [Mupain-1-16, CPAYS[L-3-(N-amidino-4-piperidyl)alanine]YLDC] (Ac-CPAYS[Ala(1-amidino-4-piperidyl)]YLDC-NH2; disulfide 1-10), the Ki on muPA Y99A amounted to 1240 ± 440 nM; on muPA V213T it was 13 ± 3 nM; on muPA S190A, 352 ± 40 nM; on muPA K41A, 300 ± 50 nM; on huPA-H99Y V41A it was 1950 ± 300 nM; on huPA-H99Y R35A, 2500 ± 290 nM. Further, the Ki on huPA-H99Y K143A is 1130 ± 320 nM; on muPA wt, 45 ± 10 nM; on muPA K143A it was 130 ± 20 nM; on huPA-H99Y Q192A, 2710 ± 280 nM; on huPA-H99Y [2] it was 2480 ± 70 nM. For the same compound, the “k off, huPA-H99Y” value on huPA-H99Y [1] (25°C, pH 7.4) is on record as 8.93±0.46 (4) s^-1, ×10^2. The “k on, huPA-H99Y” value at huPA-H99Y [1] (25°C, pH 7.4) is recorded as 1.07±0.15 (4) M^-1s^-1, ×10^-5. Also, the Kd on huPA-H99Y [1] (setting [3]) is 844 ± 132 nM; on huPA-H99Y [1] (setting [4]) it was 920 nM. Besides, the koff on huPA-H99Y [1] (setting [5]) was found to be 0.0929 s⁻¹. Besides, the kon at huPA-H99Y [1] (setting [5]) came to 101000 M⁻¹ s⁻¹. Also, the “k off, muPA” value at muPA was 0.671±0.119 (3) s^−1, ×10^2. At muPA, the “k on, muPA” value is recorded as 0.898±0.545 (3) M^−1s^−1, ×10^−5.

The record behind these values is PMC4278837, “A Cyclic Peptidic Serine Protease Inhibitor: Increasing Affinity by Increasing Peptide Flexibility” (PLoS ONE, 2014).
